Data from patent publication US12509437B2, “Substituted thiophene carboxamides and derivatives thereof as microbicides” (Bayer Aktiengesellschaft, priority 2019, dated 2025).
Marks after values point to notes of the source that are not given here.

Legend:
[1] = LogP by HPLC on reversed phase columns (EEC directive 79/831 Annex V.A8); assay type: physicochemical; settings: reversed phase HPLC columns; method [a]
How it was run: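 Reversed-phase HPLC, calibrated with straight-chain alkan-2-ones (C3–C16) of known LogP; values by linear interpolation of retention times between successive alkanones. Multiple values from one method are joined by "+"; lambda-max taken from 200–400 nm UV spectra at chromatographic peaks.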

[2] = test system: salicylate responsive promoter sequence of the PR1 (pathogenesis-related protein I) gene (AT2G14610); experiment: Induction of defense gene expression in Arabidopsis thaliana (PR1 promoter-GFP reporter plants); assay type: in vivo; settings: 72 h, 3rd day after spraying, mock treated leaves set as 1.00, read-out: relative fluorescence value
How it was run: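 Transgenic A. thaliana carrying GFP under the salicylate-responsive PR1 promoter, grown five days, then sprayed with compounds. Whole-plant fluorescence imaged and quantified on day 3 post-spray, expressed relative to mock-treated leaf background set at 1.00.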

Peronospora parasitica = experiment: In vivo preventive test on Peronospora parasitica (Crucifer downy mildew) on cabbage; settings: Hyaloperonospora parasitica, 120 h, sprayed 72 hours before inoculation, evaluated 5 days after inoculation, read-out: efficacy; for pest or weed control at 125 ppm: 125 ppm of active ingredient; for pest or weed control at 500 ppm: 500 ppm of active ingredient; for pest or weed control at 31 ppm: 31 ppm of active ingredient
How it was run: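 Young cabbage plants were sprayed with compound in aqueous acetone/DMSO/Tween, then inoculated 72 h later with P. parasitica spores and held 5 days at 20 °C, 100% RH. Efficacy scored 5 days post-inoculation: 0% equals solvent-treated controls, 100% means no disease.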

Uromyces appendiculatus = experiment: In vivo preventive test on Uromyces appendiculatus (bean rust); settings: 240 h, sprayed 72 hours before inoculation, evaluated 10 days after inoculation, read-out: efficacy; for pest or weed control at 500 ppm: 500 ppm of active ingredient; for pest or weed control at 31 ppm: 31 ppm of active ingredient; for pest or weed control at 125 ppm: 125 ppm of active ingredient
How it was run: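 Young bean plants sprayed with compound in acetone/DMSO/Tween diluted in water, then inoculated 72 h later with spore suspension. Incubated 24 h at 20° C., 100% RH, then 9 days at 20° C., 70-80% RH. Efficacy scored 10 days post-inoculation, 0% = untreated-control level, 100% = no disease.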

[3] = test system: Pseudomonas syringae pv. tomato; experiment: In vivo preventive test on Pseudomonas syringae pv. tomato (bacterial speck on tomato); settings: sprayed 72 hours before inoculation, evaluated 5 or 6 days after inoculation, read-out: efficacy; for pest or weed control at 500 ppm: 500 ppm of active ingredient; for pest or weed control at 125 ppm: 125 ppm of active ingredient
Experimental: (§1) The tested active ingredients were prepared by homogenization in a mixture of acetone/Dimethyl sulfoxide/Tween®, and then diluted with water to obtain the desired active material concentration.
The young plants of tomato were treated by spraying the active ingredient prepared as described above. Control plants were treated only with an aqueous solution of acetone/Dimethyl sulfoxide/Tween®.
After 72 hours, the plants were contaminated by spraying the leaves with an aqueous bacteria suspension of Pseudomonas syringae pv. tomato. The contaminated tomato plants were incubated for 4 days in saturated atmosphere at 22° C. day/20° C. night−70% HR and then for 1 or 2 days at 22° C. day/20° C. night at 70-80% relative humidity.
The test was evaluated 5 or 6 days after the inoculation. 0% means an efficacy which corresponds to that of the control plants while an efficacy of 100% means that no disease was observed.

[4] = test system: Colletotrichum lindemuthianum; experiment: In vivo preventive test on Colletotrichum lindemuthianum (Anthracnose on bean); settings: sprayed 72 hours before inoculation, evaluated 6 days after inoculation; for pest or weed control at 500 ppm: 500 ppm of active ingredient
Experimental: as §1
The young plants of bean were treated by spraying the active ingredient prepared as described above. Control plants were treated only with an aqueous solution of acetone/Dimethyl sulfoxide/Tween®.
After 72 hours, the plants were contaminated by spraying the leaves with an aqueous suspension of Colletotrichum lindemuthianum spores. The contaminated bean plants were incubated for 24 hours at 20° C. and at 100% relative humidity and then for 5 days at 20° C. and at 90% relative humidity.
The test was evaluated 6 days after the inoculation. 0% means an efficacy which corresponds to that of the control plants while an efficacy of 100% means that no disease was observed.

[5] = test system: Xanthomonas campestris pv. campestris; experiment: In vivo preventive test on Xanthomonas campestris pv. campestris (black rot on cabbage); settings: sprayed 72 hours before inoculation, evaluated 8 or 10 days after inoculation; for pest or weed control at 31 ppm / pest or weed control at 500 ppm / pest or weed control at 125 ppm: Xanthomonas campestris, read-out: efficacy; for pest or weed control at 500 ppm: 500 ppm of active ingredient; for pest or weed control at 125 ppm: 125 ppm of active ingredient
How it was run: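 Young cabbage plants sprayed preventively with compound formulated in acetone/DMSO/Tween and diluted in water, then inoculated 72 h later with a bacterial spray. Kept at 27° C, 95% relative humidity; disease scored after 8 or 10 days as % efficacy versus solvent-treated controls (0% = control, 100% = no disease).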

Alternaria alternata = Alternaria alternata in vitro cell test; assay type: cell-based; settings: 120 h, 5 days incubation, read-out: efficacy (inhibition of fungal growth; no direct activity); for inhibition at 5 ppm: 5 ppm of active ingredient; for inhibition at 20 ppm: 20 ppm of active ingredient
How it was run: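 A. alternata spores in glucose/peptone/yeast-extract liquid medium were exposed to DMSO-solubilized compound (final DMSO ≤1%). After 5 days incubation, mycelium growth read spectrometrically; inhibition derived from absorbance relative to fungicide-free control wells.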

[6] = test system: Colletotrichum lindemuthianum; experiment: Colletotrichum lindemuthianum in vitro cell test; assay type: cell-based; settings: 144 h, 6 days incubation, read-out: efficacy (inhibition of fungal growth; no direct activity); for inhibition at 5 ppm: 5 ppm of active ingredient; for inhibition at 20 ppm: 20 ppm of active ingredient
How it was run: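 C. lindemuthianum spore suspension grown in liquid glucose/peptone/yeast-extract medium with compound (final DMSO ≤1%). After 6 days, mycelial growth measured by absorbance; inhibition calculated versus fungicide-free control wells.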

[7] = test system: Xanthomonas campestris pv. campestris; experiment: Xanthomonas campestris pv. campestris in vitro cell test; assay type: cell-based; settings: 24 h of incubation, read-out: efficacy (inhibition of bacteria growth; no direct activity); for inhibition at 5 ppm: 5 ppm of active ingredient; for inhibition at 20 ppm: 20 ppm of active ingredient
How it was run: (§2)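 Bacteria from liquid pre-culture diluted to set OD in LB broth and exposed to compounds dissolved in DMSO (final ≤1%). After 24 h, growth read by absorbance; inhibition derived relative to compound-free control wells.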

[8] = test system: Pseudomonas syringae pv. tomato; experiment: Pseudomonas syringae pv. tomato in vitro cell test; assay type: cell-based; settings: 20 ppm of active ingredient, 24 h of incubation, read-out: efficacy (inhibition of bacteria growth; no direct activity)
How it was run: as §2

[9] = Colletotrichum lindemuthianum, 144 h, 125 ppm of active ingredient, read-out: efficacy
[10] = Colletotrichum lindemuthianum, 144 h, read-out: efficacy

chromatographic logP [1] | Compound | fold induction at 75 ppm [2] | fold induction at 300 ppm [2] | pest or weed control at 125 ppm (Peronospora parasitica) [%] | pest or weed control at 500 ppm (Peronospora parasitica) [%] | pest or weed control at 500 ppm (Uromyces appendiculatus) [%] | pest or weed control at 500 ppm [3] [%] | pest or weed control at 125 ppm [4, 9] [%] | pest or weed control at 500 ppm [4, 10] [%] | pest or weed control at 31 ppm ([5]; 31 ppm of active ingredient) [%] | pest or weed control at 500 ppm [5] [%] | pest or weed control at 31 ppm (Uromyces appendiculatus) [%] | pest or weed control at 31 ppm (Peronospora parasitica) [%] | pest or weed control at 125 ppm (Uromyces appendiculatus) [%] | inhibition at 5 ppm (Alternaria alternata) [%] | inhibition at 5 ppm [6] [%] | inhibition at 5 ppm [7] [%] | inhibition at 20 ppm [7] [%] | inhibition at 20 ppm [8] [%] | pest or weed control at 125 ppm [5] [%] | other results
3.81 | CCSC(=O)C1(NC(=O)c2sc(Br)c(Br)c2C)CC1 [I.128] | > 2 | > 2 | 90 to 100 | 90 to 100 | 90 to 100 | 70 to 79 |  |  |  |  |  |  |  |  |  |  |  |  |  | 
 | CCOC(=O)C1(NC(=O)c2cc(Br)c(Br)s2)CC1 [CMP2, reference compound] |  |  | < 30 |  | < 30 | < 40 | 0 | 0 | 0 | 0 | < 40 |  |  |  |  |  |  |  |  | 
2.58 | CCOC(=O)C(CO)NC(=O)c1sc(Br)c(Br)c1C (centres unmarked) [I.006] | > 2 | > 2 | 90 to 100 | 90 to 100 | 90 to 100 |  |  | 70 to 79 |  | 80 to 89 | 90 to 100 | 80 to 89 | 80 to 89 | ≤ 30 | ≤ 30 | ≤ 30 | ≤ 30 | ≤ 30 |  | inhibition at 20 ppm (Alternaria alternata): ≤ 30%
 | O=C(NC(C(=O)O)C1CC1)c1cc(Cl)c(Cl)s1 (centres unmarked) [CMP9, reference compound] |  |  |  |  |  |  | 30 |  | < 20 | 0 |  |  | < 40 |  |  |  |  |  |  | efficacy ([4]; 125 ppm of active ingredient): 30* %; pest or weed control at 125 ppm [3]: 34%
2.63 | Cc1c(C(=O)NC2(C(=O)O)CCC2)sc(Br)c1Br [I.137] | > 2 | > 2 | 90 to 100 | 90 to 100 | 90 to 100 | 70 to 79 |  | 90 to 100 |  | 90 to 100 |  | 70 to 79 | 90 to 100 |  |  |  |  |  | 90 to 100 | 
 | COC(=O)C(NC(=O)c1cc(Br)c(Br)s1)C1CC1 (centres unmarked) [CMP10, reference compound] |  |  |  |  |  |  |  |  | < 30 |  | 0 | < 30 |  |  |  |  |  |  |  | pest or weed control at 125 ppm [3]: < 40%
 | COC(=O)CC[C@H](NC(=O)c1cc(Cl)c(Cl)s1)C(=O)OC [CMP12, reference compound] |  |  |  |  |  |  | < 20 |  |  |  |  |  |  |  |  |  |  |  |  | pest or weed control at 31 ppm ([3]; 31 ppm of active ingredient): 10%
 | O=C(NC1(C(=O)O)CC1)c1cc(Br)c(Br)s1 [CMP1, reference compound] |  |  |  |  |  | 0 |  |  | 10 | 0 |  |  |  |  |  |  |  |  |  | efficacy ([5]; 31 ppm of active ingredient): 10* %
2.62 | Cc1c(C(=O)NC2(C(=O)O)CCC2)sc(Cl)c1Cl [I.175] | > 2 | > 2 | 90 to 100 |  |  |  | 70 to 79 |  | 70 to 79 |  |  | 90 to 100 | 70 to 79 | ≤ 30 | ≤ 30 | ≤ 30 | ≤ 30 | ≤ 30 | 80 to 89 | inhibition at 20 ppm (Alternaria alternata): ≤ 30%; inhibition at 20 ppm [6]: ≤ 30%
2.48 | CCOC(=O)C(CO)NC(=O)c1sc(Cl)c(Cl)c1C (centres unmarked) [I.039] | > 2 | > 2 | 90 to 100 | 90 to 100 | 80 to 89 |  |  | 90 to 100 | 70 to 79 |  |  | 90 to 100 |  | ≤ 30 | ≤ 30 | ≤ 30 | ≤ 30 | ≤ 30 | 70 to 79 | inhibition at 20 ppm (Alternaria alternata): ≤ 30%; inhibition at 20 ppm [6]: ≤ 30%
1.5 | COC(=O)C(Cc1c[nH]cn1)NC(=O)c1sc(Br)c(Br)c1C (centres unmarked) [I.033] |  | > 2 | 70 to 79 | 80 to 89 | 90 to 100 |  | 80 to 89 | 90 to 100 | 70 to 79 |  |  |  |  | ≤ 30 | ≤ 30 | ≤ 30 | ≤ 30 | ≤ 30 | 70 to 79 | inhibition at 20 ppm (Alternaria alternata): ≤ 30%; inhibition at 20 ppm [6]: ≤ 30%
3.37 | CCOC(=O)C(COC)NC(=O)c1sc(Cl)c(Cl)c1C (centres unmarked) [I.044] | > 2 | > 2 | 90 to 100 | 90 to 100 | 90 to 100 |  | 90 to 100 | 90 to 100 | 70 to 79 |  | 90 to 100 | 90 to 100 | 90 to 100 | ≤ 30 | ≤ 30 | ≤ 30 | ≤ 30 | ≤ 30 | 80 to 89 | pest or weed control at 31 ppm ([4]; Colletotrichum lindemuthianum, 144 h, 31 ppm of active ingredient, read-out: efficacy): 80 to 89%
